From US20050107386A1, “Methods of treating diseases and disorders by targeting multiple kinases” (priority 2003, published 2005)
Values belong to the molecule of their own block, whether it stands above or below them.

Columns and labels:
[1] = target: cSRC(h) (Homo sapiens, UniProt P12931); assay: cSRC(h) kinase assay; format: biochemical; conditions: for Inhibitory activity (% of control), cSRC(h): 3 μM, percent of control kinase activity
Protocol: (§1) Six compounds (presumptive single agents) were tested against a panel of 50 kinases. The results are presented in Table 2; numbers for each kinase indicate the percent of control kinase activity in the presence of a 3μM concentration of the indicated agent.
(§2) Agents that target two or more different kinases are useful in the methods of the invention as described elsewhere herein. Such compounds may be identified, and their effect on certain kinases may be identified, using the assays briefly described below in Examples 4-83. Each of these assays was carried out as described in Davies et al., Biochem. J., 351:95-105 (2000). All assays were carried out at 10 μM ATP unless otherwise noted.
In a final reaction volume of 25 μl, cSRC (h) (5-10 mU) is incubated with 8 mM MOPS pH 7.0, 0.2 mM EDTA, 250 μM […] (Cdc2 peptide; SEQ ID NO:7), 10 mM MgAcetate and [γ-^33P-ATP] (Specific activity approx. 500 cpm/pmol, concentration as required). The reaction is initiated by the addition of Mg^2+ [γ-^33P-ATP]. After incubation for 40 minutes at room temperature, the reaction is stopped by the addition of 5 μl of a 3% phosphoric acid solution. 10 μl of the reaction is then spotted onto a P30 filtermat and washed three times for 5 minutes in 75 mM phosphoric acid and once in methanol prior to drying and scintillation counting.

[2] = target: T1, Bmx(h) (Homo sapiens, UniProt P51813); assay: Bmx(h) kinase assay; format: biochemical; conditions: 3 μM; percent of control kinase activity
T1 sequence (P51813 1-675): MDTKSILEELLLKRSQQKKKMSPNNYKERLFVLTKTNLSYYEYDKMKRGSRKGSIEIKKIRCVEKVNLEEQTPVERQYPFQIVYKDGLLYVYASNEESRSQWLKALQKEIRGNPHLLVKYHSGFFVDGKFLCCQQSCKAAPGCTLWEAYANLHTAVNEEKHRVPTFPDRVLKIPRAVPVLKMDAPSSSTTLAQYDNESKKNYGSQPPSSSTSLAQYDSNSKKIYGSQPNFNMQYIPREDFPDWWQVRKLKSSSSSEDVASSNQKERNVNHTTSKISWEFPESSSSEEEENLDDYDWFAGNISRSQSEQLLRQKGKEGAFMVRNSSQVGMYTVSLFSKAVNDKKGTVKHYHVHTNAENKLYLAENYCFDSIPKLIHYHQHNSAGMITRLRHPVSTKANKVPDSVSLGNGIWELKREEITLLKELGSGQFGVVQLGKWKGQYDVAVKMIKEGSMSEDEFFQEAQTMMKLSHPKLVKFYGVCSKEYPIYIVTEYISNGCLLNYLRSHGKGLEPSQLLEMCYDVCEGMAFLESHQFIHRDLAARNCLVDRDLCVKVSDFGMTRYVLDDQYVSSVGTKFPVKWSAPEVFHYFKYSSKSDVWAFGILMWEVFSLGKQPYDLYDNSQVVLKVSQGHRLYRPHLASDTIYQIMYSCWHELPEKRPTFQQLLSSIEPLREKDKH
Protocol: as §1, §2

[3] = target: GSK3β(h) (Homo sapiens, UniProt P49841); assay: GSK3β(h) kinase assay; format: biochemical; conditions: 3 μM; percent of control kinase activity
Sequence of GSK3β(h) (P49841 whole entry): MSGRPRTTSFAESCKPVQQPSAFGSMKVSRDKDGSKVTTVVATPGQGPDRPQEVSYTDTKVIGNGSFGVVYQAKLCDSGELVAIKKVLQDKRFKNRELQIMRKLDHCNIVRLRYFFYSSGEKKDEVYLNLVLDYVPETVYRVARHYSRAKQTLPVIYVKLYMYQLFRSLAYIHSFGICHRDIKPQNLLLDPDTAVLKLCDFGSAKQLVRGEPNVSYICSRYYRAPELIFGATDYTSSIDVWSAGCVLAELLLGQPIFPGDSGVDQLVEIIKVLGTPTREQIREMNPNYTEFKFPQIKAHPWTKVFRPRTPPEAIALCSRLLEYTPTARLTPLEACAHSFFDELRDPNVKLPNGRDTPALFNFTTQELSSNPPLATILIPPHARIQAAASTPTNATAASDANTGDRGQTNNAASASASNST
Protocol: as §1, §2
In a final reaction volume of 25 μl, GSK3β (h) (5-10 mU) is incubated with 8 mM MOPS pH 7.0, 0.2 mM EDTA, 20 μM […](p)EDEEE (phospho GS2 peptide; SEQ ID NO:3), 10 mM MgAcetate and [γ-^33P-ATP] (Specific activity approx. 500 cpm/pmol, concentration as required). The reaction is initiated by the addition of Mg^2+ [γ-^33P-ATP]. After incubation for 40 minutes at room temperature, the reaction is stopped by the addition of 5 μl of a 3% phosphoric acid solution. 10 μl of the reaction is then spotted onto a P30 filtermat and washed three times for 5 minutes in 50 mM phosphoric acid and once in methanol prior to drying and scintillation counting.

[4] = target: PKA(h) (Homo sapiens, UniProt P17612); assay: PKA(h) kinase assay; format: biochemical; conditions: 3 μM; percent of control kinase activity
Protocol: as §1, §2
In a final reaction volume of 25 μl, PKA(h) (5-10 mU) is incubated with 8 mM MOPS pH 7.0, 0.2 mM EDTA, 30 μM LRRASLG (Kemptide; SEQ ID NO:10), 10 mM MgAcetate and [γ-^33P-ATP] (specific activity approx. 500 cpm/pmol, concentration as required). The reaction is initiated by the addition of Mg^2+ [γ-^33P-ATP]. After incubation for 40 minutes at room temperature, the reaction is stopped by the addition of 5 [Il of a 3% phosphoric acid solution. 10 μl of the reaction is then spotted onto a P30 filtermat and washed three times for 5 minutes in 50 mM phosphoric acid and once in methanol prior to drying and scintillation counting.

[5] = tested on: panel of 50 kinases; assay: Panel of 50 kinases (Table 2), count of inhibited kinases; format: biochemical; conditions: compared to a no-compound control; 3 μM
Protocol: as §1
CC006 (5-(5-Cyclopentyl-1H-[1,2,4]triazol-3-yl)-3-(4-fluoro-phenyl)-1H-indazole) and CC007 (3-(5-(1H-1,2,4-triazol-3-yl)(1H-indazol-3-yl))phenyl-N-cyclopentylcarboxamide) were included as controls.

[6] = tested on: HCT-116 colon cancer cells; assay: Activation of kinases and their downstream targets in HCT-116 cells; format: cell-based; conditions: concentration-dependent
Excerpt: (§3) CC001 is a low molecular weight mixed kinase inhibitor (MKI) with potent in vitro inhibitory activity against a variety of kinases.

[7] = tested on: cancer cell lines; assay: In vitro combination studies with standard chemotherapeutic agents and signal transduction inhibitors; format: cell-based; conditions: with standard chemotherapeutic agents such as taxol, and novel signal transduction inhibitors
Excerpt: as §3

[8] = tested on: colon and lung tumors; assay: SCID mice bearing colon and lung tumors; format: in vivo, mouse; conditions: 10 mg/kg to 20mg/kg twice a day, single agent
Protocol: SCID mice bearing colon and lung tumors were treated with CC001 at a concentration of 10 mg/kg to 20mg/kg, administered twice a day.

[9] = tested on: NCI-H460 NSCLC xenograft; assay: NCI-H460 NSCLC xenograft model; format: in vivo; conditions: CC001 combined with the maximum tolerated dose of Taxotere
Protocol: A similar study was performed using an NCI-H460 NSCLC xenograft model in which CC001 was combined with the maximum tolerated dose of Taxotere (an anti-cancer compound related to taxol). […]. […]

[10] = tested on: HCT-116 cells; assay: SCID mouse/HCT-116 xenograft model; conditions: for % Tumor Growth Inhibition / T/C (ratio of mean tumor volume for treated vs. vehicle control) / Tumor Volume: day 28; for Tumor Volume: mean ± SEM
Protocol: In one experiment, female CB.17 SCID mice were inoculated subcutaneously in the right hind limb with 2×10^6 HCT-116 cells. […] Treatment commenced on day 8 and proceeded for the duration of the study. All the compound treatments were given i.p. in a vehicle NPS in a volume of 5 ml/kg. […] The tumor volumes were measured twice a week using calipers. Values are mean±SEM. Statistical analysis was performed using ANOVA.
Female CB.17 SCID mice were inoculated subcutaneously in the right hind limb with 2×10^6 HCT-116 cells. […] Treatment commenced on day 8 and proceeded for the duration of the study. All the treatments were given i.p. in a vehicle NPS in a volume of 5 ml/kg.
Female CB.17 SCID mice were inoculated subcutaneously in the right hind limb with 2×10^6 HCT-116 cells. […] Treatment commenced on day 8 and proceeded for the duration of the study. All the compound treatments were given i.p. in a vehicle NPS in a volume of 5 ml/kg. […] The tumor volumes were measured twice a week using calipers.

[11] = CC001 with Camptosar, model not named
[12] = Table 4, i.p. 20 mg/kg b.i.d. (b.i.d. day 8-11, then qd)

Sequence of cSRC(h) (P12931 whole entry): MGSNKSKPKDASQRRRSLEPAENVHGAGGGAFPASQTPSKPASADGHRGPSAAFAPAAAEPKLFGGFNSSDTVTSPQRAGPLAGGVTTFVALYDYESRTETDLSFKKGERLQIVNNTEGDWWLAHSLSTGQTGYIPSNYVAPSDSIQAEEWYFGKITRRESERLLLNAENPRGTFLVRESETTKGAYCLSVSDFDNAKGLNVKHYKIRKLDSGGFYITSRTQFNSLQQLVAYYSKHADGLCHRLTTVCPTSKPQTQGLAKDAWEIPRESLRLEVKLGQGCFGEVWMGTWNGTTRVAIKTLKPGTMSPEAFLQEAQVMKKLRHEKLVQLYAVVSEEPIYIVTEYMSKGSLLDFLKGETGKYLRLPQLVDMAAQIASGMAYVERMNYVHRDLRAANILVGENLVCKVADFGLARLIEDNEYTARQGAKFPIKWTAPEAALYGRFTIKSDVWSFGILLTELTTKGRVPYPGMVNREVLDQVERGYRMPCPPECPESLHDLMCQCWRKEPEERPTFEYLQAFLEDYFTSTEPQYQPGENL

SMILES: COc1ccc2cc(-c3n[nH]c4ccc(-c5n[nH]c(CN6CCOCC6)n5)cc34)ccc2c1 [CC001, 3-(6-Methoxynaphthalen-2-yl)-5-(5-Morpholin-4-Ylmethyl-1H-[1,2,4]Triazol-3-yl)-1H-Indazole]
Inhibitory activity (% of control), cSRC(h) [1]: 2 % of control
Inhibitory activity (% of control), Bmx(h) [2]: 74 % of control
Inhibitory activity (% of control), GSK3β(h) [3]: 12 % of control
Inhibitory activity (% of control), PKA(h) [4]: 60 % of control
number of kinases listed in Table 2 whose activity is inhibited by more than 95% [5]: 16
activation of kinases and their downstream targets [6]: inhibited the activation of kinases and their downstream targets
antiproliferative activity in combination [7]: additive and/or synergistic antiproliferative activity
T/C ratio [8]: 40-60%
tumor growth, in words [8]: inhibited tumor growth in a dose-dependent manner
T/C ratio [9]: 16-28%
additional toxicity as evidenced by weight loss [9]: No apparent additional toxicity
effect on tumor development, in words ([10]; CC001 at 20 mg/kg administered with 2.5 mg/kg Camptosar): equivalent to an administration of Camptosar alone at 10 mg/kg
T/C ratio [10, 11]: ~15%
in vivo effects in combination, in words [10, 11]: Additive in vivo effects
TGD (days to reach 1000 mm^3) ([10]; Table 3, i.p. 20 mg/kg b.i.d.): >12 days
% Tumor Growth Inhibition ([10]; Table 3, i.p. 20 mg/kg b.i.d.): 69.6%
T/C (ratio of mean tumor volume for treated vs. vehicle control) ([10]; Table 3, i.p. 20 mg/kg b.i.d.): 32
Tumor Volume ([10]; Table 3, i.p. 20 mg/kg b.i.d.): 798.3 ± 71.1^e mm^3
% Tumor Growth Inhibition ([10]; Table 5, i.p. 20 mg/kg b.i.d.): 69%
T/C (ratio of mean tumor volume for treated vs. vehicle control) ([10]; Table 5, i.p. 20 mg/kg b.i.d.): 34
Tumor Volume ([10]; Table 5, i.p. 20 mg/kg b.i.d.): 752.5 ± 66.6^e mm^3
TGD (500 mm^3) ([10]; Table 5, i.p. 20 mg/kg b.i.d., days to reach 500 mm^3): >7 days
TGD (1000 mm^3) ([10]; Table 5, i.p. 20 mg/kg b.i.d., days to reach 1000 mm^3): >10 days
tumor mass over the course of the experiment, in words ([10]; i.p. 20 mg/kg b.i.d., P<0.001 compared to vehicle control): significantly smaller tumor mass

SMILES: CC(C)Cc1nc(-c2ccc3[nH]nc(-c4ccc5cc(OCCN6CCCC6)ccc5c4)c3c2)n[nH]1 [CC002, 5-(5-Isobutyl-1H-[1,2,4]Triazol-3-yl)-3-[6-(2-Pyrrolidin-1-yl-Ethoxy)-Naphthalen-2-yl]-1H-Indazole]
number of kinases listed in Table 2 whose activity is inhibited by more than 95% [5]: 29
TGD (days to reach 1000 mm^3) [10, 12]: >12 days
% Tumor Growth Inhibition [10, 12]: 68%
T/C (ratio of mean tumor volume for treated vs. vehicle control) [10, 12]: 35
Tumor Volume [10, 12]: 792.8 ± 86.5^e mm^3
tumor volumes over the course of the experiment, in words ([10]; i.p. 20 mg/kg b.i.d. day 8-11, then qd, P<0.001 vs vehicle control): reduced tumor volumes

Inhibitory activity (% of control), cSRC(h) [1]: 67 % of control
inhibitory activity against cSrc, in words ([1]; summary of Table 2): somewhat less inhibitory activity
Inhibitory activity (% of control), Bmx(h) [2]: 98 % of control
Inhibitory activity (% of control), GSK3β(h) [3]: 63 % of control
Inhibitory activity (% of control), PKA(h) [4]: 91 % of control
SMILES: CC(C)(C)Cc1nc(-c2ccc3[nH]nc(-c4ccc5cc(OCc6ccccn6)ccc5c4)c3c2)n[nH]1 [CC004, 5-[5-(2,2-Dimethyl-propyl)-1H-[1,2,4]triazol-3-yl]-3-[6-(pyridine-2-ylmethoxy)-naphthalen-2-yl]-1H-indazole]
number of kinases listed in Table 2 whose activity is inhibited by more than 95% [5]: 16

Inhibitory activity (% of control), cSRC(h) [1]: 3 % of control
Inhibitory activity (% of control), Bmx(h) [2]: 36 % of control
Inhibitory activity (% of control), GSK3β(h) [3]: 34 % of control
Inhibitory activity (% of control), PKA(h) [4]: 50 % of control
SMILES: CCN1CCC[C@H]1COc1ccc2cc(-c3n[nH]c4ccc(-c5nc(CC(C)(C)C)n[nH]5)cc34)ccc2c1 [CC005, 2-[((2s)-1-ethylpyrrolidin-2-yl)methoxy]-6-{5-[3-(2,2-Dimethylpropyl)(1H-1,2,4,-triazol-5-yl)](1H-indazol-3-yl)}naphthalene]
